# In PubChem BioAssay (NCI):
#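 A five-concentration, 48-hour dose response in 96-well plates underlies each endpoint, interpolated linearly between surrounding concentrations. TGI: concentration producing complete growth inhibition.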
# Key:
# Assay in all cases: growth of human tumour cells (NCI), 48 h
# 786-0 renal = system: 786-0 renal
# A498 renal = system: A498 renal
# A549 NSCLC = system: A549 NSCLC
# ACHN renal = system: ACHN renal
# CAKI-1 renal = system: CAKI-1 renal
# CCRF-CEM leukemia = system: CCRF-CEM leukemia
# COLO 205 colon = system: COLO 205 colon
# DLD-1 colon = system: DLD-1 colon
# DMS 114 small cell lung = system: DMS 114 small cell lung
# DMS 273 small cell lung = system: DMS 273 small cell lung
# DU-145 prostate = system: DU-145 prostate
# EKVX NSCLC = system: EKVX NSCLC
# HCC-2998 colon = system: HCC-2998 colon
# HCT-116 colon = system: HCT-116 colon
# HCT-15 colon = system: HCT-15 colon
# HL-60(TB) leukemia = system: HL-60(TB) leukemia
# HOP-18 NSCLC = system: HOP-18 NSCLC
# HOP-62 NSCLC = system: HOP-62 NSCLC
# HOP-92 NSCLC = system: HOP-92 NSCLC
# HS 578T breast = system: HS 578T breast
# HT29 colon = system: HT29 colon
# IGROV1 ovarian = system: IGROV1 ovarian
# K-562 leukemia = system: K-562 leukemia
# KM12 colon = system: KM12 colon
# KM20L2 colon = system: KM20L2 colon
# LOX IMVI melanoma = system: LOX IMVI melanoma
# LXFL 529 NSCLC = system: LXFL 529 NSCLC
# M14 melanoma = system: M14 melanoma
# M19-MEL melanoma = system: M19-MEL melanoma
# MALME-3M melanoma = system: MALME-3M melanoma
# MCF7 breast = system: MCF7 breast
# MDA-MB-231 breast = system: MDA-MB-231 breast
# MDA-MB-435 = system: MDA-MB-435
# MOLT-4 leukemia = system: MOLT-4 leukemia
# NCI-H226 lung = system: NCI-H226 lung
# NCI-H23 lung = system: NCI-H23 lung
# NCI-H460 lung = system: NCI-H460 lung
# NCI-H522 lung = system: NCI-H522 lung
# NCI/ADR-RES ovarian = system: NCI/ADR-RES ovarian
# OVCAR-3 ovarian = system: OVCAR-3 ovarian
# OVCAR-4 ovarian = system: OVCAR-4 ovarian
# OVCAR-5 ovarian = system: OVCAR-5 ovarian
# OVCAR-8 ovarian = system: OVCAR-8 ovarian
# PC-3 prostate = system: PC-3 prostate
# RPMI-8226 leukemia = system: RPMI-8226 leukemia
# RXF 393 renal = system: RXF 393 renal
# SF-268 CNS = system: SF-268 CNS
# SF-295 CNS = system: SF-295 CNS
# SF-539 CNS = system: SF-539 CNS
# SK-MEL-2 melanoma = system: SK-MEL-2 melanoma
# SK-MEL-28 melanoma = system: SK-MEL-28 melanoma
# SK-MEL-5 melanoma = system: SK-MEL-5 melanoma
# SK-OV-3 ovarian = system: SK-OV-3 ovarian
# SN12C renal = system: SN12C renal
# SNB-19 CNS = system: SNB-19 CNS
# SNB-75 CNS = system: SNB-75 CNS
# SNB-78 CNS = system: SNB-78 CNS
# SR leukemia = system: SR leukemia
# SW-620 colon = system: SW-620 colon
# T-47D breast = system: T-47D breast
# TK-10 renal = system: TK-10 renal
# U251 CNS = system: U251 CNS
# UACC-257 melanoma = system: UACC-257 melanoma
# UACC-62 melanoma = system: UACC-62 melanoma
# UO-31 renal = system: UO-31 renal
# XF 498 CNS = system: XF 498 CNS
smiles,measurement,setting,value
COc1cc(/C=C/c2ccc(/C=C/c3cc(OC)c(OC)c(OC)c3)cc2)cc(OC)c1OC,TGI,786-0 renal,20.7 µM
same,TGI,A498 renal,26.1 µM
same,TGI,A549 NSCLC,> 100 µM
same,TGI,ACHN renal,44.5 µM
same,TGI,CAKI-1 renal,72.3 µM
same,TGI,CCRF-CEM leukemia,> 100 µM
same,TGI,COLO 205 colon,> 100 µM
same,TGI,DLD-1 colon,> 100 µM
same,TGI,DMS 114 small cell lung,> 68.2 µM
same,TGI,DMS 273 small cell lung,> 48.9 µM
same,TGI,DU-145 prostate,> 100 µM
same,TGI,EKVX NSCLC,> 69.1 µM
same,TGI,HCC-2998 colon,> 61.1 µM
same,TGI,HCT-116 colon,> 100 µM
same,TGI,HCT-15 colon,> 100 µM
same,TGI,HL-60(TB) leukemia,> 100 µM
same,TGI,HOP-18 NSCLC,> 100 µM
same,TGI,HOP-62 NSCLC,31.3 µM
same,TGI,HOP-92 NSCLC,34.7 µM
same,TGI,HS 578T breast,75.5 µM
same,TGI,HT29 colon,> 61.7 µM
same,TGI,IGROV1 ovarian,> 71.1 µM
same,TGI,K-562 leukemia,> 100 µM
same,TGI,KM12 colon,> 77.4 µM
same,TGI,KM20L2 colon,> 76.3 µM
same,TGI,LOX IMVI melanoma,> 85.8 µM
same,TGI,LXFL 529 NSCLC,35.9 µM
same,TGI,M14 melanoma,> 100 µM
same,TGI,M19-MEL melanoma,> 100 µM
same,TGI,MALME-3M melanoma,60.1 µM
same,TGI,MCF7 breast,> 100 µM
same,TGI,MDA-MB-231 breast,52.7 µM
same,TGI,MDA-MB-435,> 100 µM
same,TGI,MOLT-4 leukemia,> 100 µM
same,TGI,NCI-H226 lung,49.7 µM
same,TGI,NCI-H23 lung,25.2 µM
same,TGI,NCI-H460 lung,> 82 µM
same,TGI,NCI-H522 lung,27.2 µM
same,TGI,NCI/ADR-RES ovarian,> 100 µM
same,TGI,OVCAR-3 ovarian,77.3 µM
same,TGI,OVCAR-4 ovarian,18.1 µM
same,TGI,OVCAR-5 ovarian,> 100 µM
same,TGI,OVCAR-8 ovarian,56.1 µM
same,TGI,PC-3 prostate,> 100 µM
same,TGI,RPMI-8226 leukemia,> 100 µM
same,TGI,RXF 393 renal,20.4 µM
same,TGI,SF-268 CNS,42.5 µM
same,TGI,SF-295 CNS,19.8 µM
same,TGI,SF-539 CNS,17.8 µM
same,TGI,SK-MEL-2 melanoma,53.9 µM
same,TGI,SK-MEL-28 melanoma,> 100 µM
same,TGI,SK-MEL-5 melanoma,> 100 µM
same,TGI,SK-OV-3 ovarian,22.7 µM
same,TGI,SN12C renal,> 100 µM
same,TGI,SNB-19 CNS,32.6 µM
same,TGI,SNB-75 CNS,19.5 µM
same,TGI,SNB-78 CNS,85 µM
same,TGI,SR leukemia,> 100 µM
same,TGI,SW-620 colon,> 100 µM
same,TGI,T-47D breast,24 µM
same,TGI,TK-10 renal,39.5 µM
same,TGI,U251 CNS,29.5 µM
same,TGI,UACC-257 melanoma,> 100 µM
same,TGI,UACC-62 melanoma,25.1 µM
same,TGI,UO-31 renal,> 84.6 µM
same,TGI,XF 498 CNS,31.4 µM
Cn1c(=O)c2c3ccccc3c(C(=O)c3ccccc3)n2c2ccccc21,TGI,786-0 renal,> 100 µM
same,TGI,A498 renal,> 100 µM
same,TGI,A549 NSCLC,> 100 µM
same,TGI,ACHN renal,> 100 µM
same,TGI,CAKI-1 renal,> 100 µM
same,TGI,CCRF-CEM leukemia,> 31.6 µM
same,TGI,COLO 205 colon,> 100 µM
same,TGI,DLD-1 colon,> 100 µM
same,TGI,DMS 114 small cell lung,> 100 µM
same,TGI,DMS 273 small cell lung,> 100 µM
same,TGI,EKVX NSCLC,> 100 µM
same,TGI,HCC-2998 colon,> 100 µM
same,TGI,HCT-116 colon,> 100 µM
same,TGI,HCT-15 colon,> 100 µM
same,TGI,HL-60(TB) leukemia,> 100 µM
same,TGI,HOP-18 NSCLC,> 100 µM
same,TGI,HOP-62 NSCLC,> 100 µM
same,TGI,HOP-92 NSCLC,> 84.2 µM
same,TGI,HT29 colon,> 100 µM
same,TGI,IGROV1 ovarian,> 100 µM
same,TGI,K-562 leukemia,> 100 µM
same,TGI,KM12 colon,> 100 µM
same,TGI,KM20L2 colon,> 100 µM
same,TGI,LOX IMVI melanoma,> 100 µM
same,TGI,LXFL 529 NSCLC,> 100 µM
same,TGI,M14 melanoma,> 100 µM
same,TGI,M19-MEL melanoma,> 100 µM
same,TGI,MALME-3M melanoma,> 100 µM
same,TGI,MOLT-4 leukemia,> 100 µM
same,TGI,NCI-H226 lung,> 100 µM
same,TGI,NCI-H23 lung,> 100 µM
same,TGI,NCI-H460 lung,> 100 µM
same,TGI,NCI-H522 lung,> 100 µM
same,TGI,OVCAR-3 ovarian,> 100 µM
same,TGI,OVCAR-4 ovarian,> 100 µM
same,TGI,OVCAR-5 ovarian,> 100 µM
same,TGI,OVCAR-8 ovarian,> 100 µM
same,TGI,RPMI-8226 leukemia,> 100 µM
same,TGI,RXF 393 renal,> 100 µM
same,TGI,SF-268 CNS,> 100 µM
same,TGI,SF-295 CNS,> 100 µM
same,TGI,SF-539 CNS,> 100 µM
same,TGI,SK-MEL-2 melanoma,> 100 µM
same,TGI,SK-MEL-28 melanoma,> 100 µM
same,TGI,SK-MEL-5 melanoma,> 100 µM
same,TGI,SK-OV-3 ovarian,> 100 µM
same,TGI,SN12C renal,> 100 µM
same,TGI,SNB-19 CNS,> 100 µM
same,TGI,SNB-75 CNS,15 µM
same,TGI,SNB-78 CNS,> 100 µM
same,TGI,SR leukemia,> 100 µM
same,TGI,SW-620 colon,> 100 µM
same,TGI,TK-10 renal,> 96.6 µM
same,TGI,U251 CNS,> 100 µM
same,TGI,UACC-257 melanoma,> 100 µM
same,TGI,UACC-62 melanoma,> 30.1 µM
same,TGI,UO-31 renal,> 100 µM
same,TGI,XF 498 CNS,> 100 µM
